From patent publication US8455492B2, “Methods for treating retinal diseases” (Allergan, Inc., priority 1995, dated 2013)
Read-outs that look alike come from different tables or passages of the source.

What was measured:
[1] = system: rat hippocampal neuronal cultures; test: Glutamate induced excitotoxic effects on nerve cells (percentage of dead cells, trypan blue); assay type: cell-based; details: FIG. 1; day 8; 1 mM glutamate; AGN-191103 0.1 nM, MK-801 10 nM
Method: Low-density rat hippocampal neuronal cultures were prepared by the procedure of Goslin and Banker. […] Coverslips (13 mm) were placed in staining racks, rinsed in distilled water (four rinses, 1 min. each) to remove dust and transferred to concentrated HNO3 for 36 hours. Coverslips were rinsed in distilled water (four changes over 3 hours) and sterilized with dry heat (overnight at 225° C.). The coverslips were transferred to 24-well dishes, one coverslip per well. To support the coverslips above the glia during coculturing, paraffin dots were placed on dishes, and UV irradiation (30 min.) was applied before the coverslips were introduced. One mg/mL of poly-L-lysine hydrobromide (PLL) (Sigma) (MW 30,000-70,000) was dissolved in borate buffer (0.1 M, pH 8.5), filtered, sterilized and used to cover each coverslip overnight. The PLL was removed, coverslips were rinsed in distilled water (two washes, 2 hrs. each), plating medium [Eagle's MEM with Earle's salts containing extra glucose (600 mg/L) and 10% horse serum] was added and the dishes were stored in an incubator. […]
After 24 hrs. of incubation, cells were stained with trypan blue. Live and dead neurons were counted from randomly selected culture fields (5 fields from each coverslip). Percentage of dead cells was calculated.

retina = details: FIG. 5; topical 10 μl one hour before ischemia insult; ERG one week after insult
Method: FIG. 5 is a bar graph showing the results of a study to determine the topical efficacy of brimonidine in neuroprotection. The rat acute retinal ischemia model was used to provide the noxious action. Brimonidine was applied topically one hour before ischemia insult, 10 μl to one eye, 10 μl saline to the other eye. The ERG (electroretinogram) was measured one week after the insult.

intraocular pressure [2] = details: rabbits; topical to the cornea; cited from earlier work
intraocular pressure [3] = details: cats; topical to the cornea; cited from earlier work
intraocular pressure [4] = details: monkeys; topical to the cornea; cited from earlier work
rat optic nerve = details: FIG. 3, optic nerve crush in rats

Structure (SMILES): C[C@]12N[C@H](Cc3ccccc31)c1ccccc12 [MK-801, dizocilpine]
- protection of cells from glutamate induced neurotoxicity (percentage of cells killed) [1]: comparable effects in protecting cells from glutamate induced neurotoxicity

Structure (SMILES): Brc1c(NC2=NCCN2)ccc2nccnc12 [brimonidine]
- topical neuroprotection (percent of ERG signal recovery) (retina): provides topical neuroprotection in a dose dependent manner
- reduction of intraocular pressure (intraocular pressure [2]): effective in reducing intraocular pressure
- reduction of intraocular pressure (intraocular pressure [3]): effective in reducing intraocular pressure
- reduction of intraocular pressure (intraocular pressure [4]): effective in reducing intraocular pressure

Structure (SMILES): Clc1cccc(Cl)c1N=C1NCCN1 [clonidine]
- maximal CAP response relative to AGN 191103 (rat optic nerve): about half the maximal CAP response of AGN 191013
- neuroprotective activity (maximal CAP amplitude) versus vehicle (rat optic nerve; four concentrations): some neuroprotective activity over vehicle alone
